# Values of other authors, collected in patent US9192673B2, “Fine dry particulate resveratrol active agent compositions and topical formulations including the same” (priority 2013, dated 2015).
# Settings: background statement
smiles,measurement,value
"Oc1ccc(/C=C/c2cc(O)cc(O)c2)cc1 [resveratrol, 3,5,4′-trihydroxystilbene]",solubility in water and in lipophilic components,almost insoluble
